Reference: BindingDB's records for doi:10.1016/j.ejmech.2017.07.016 (South Dakota State University, 2017)
pEC50: −log10 of the molar value.

Experiment: Antagonist activity at human CRFR1 expressed in HEK293 cells assessed as inhibition of sauvagine-induced cAMP accumulation by measuring sauvagine EC50 at 1 uM after 30 mins (Rvb = 0.203 nM)

pEC50: 8.96
SMILES: CCCCN(CC)c1nc(C)nc2c1sc(=N)n2-c1c(C)cc(C)cc1C
